{
  "source": "patent US20250235447A1",
  "about": "“METHODS FOR TREATING CARDIOVASCULAR CONDITIONS AND METHODS OF INCREASING THE EFFICIENCY OF CARDIAC METABOLISM” (IMBRIA PHARMACEUTICALS, INC., priority 2021, published 2025)",
  "key": {"[1]": {"test": "28-day dog toxicity study (NOAEL and exposure)", "type": "in vivo", "conditions": "from HED", "experimental": "Based on the nonclinical toxicology data, it was considered that subjects in this clinical study were not at unreasonable risk of adverse effects. […] For a 60-kg individual, the NOAEL dose would be 6480 mg. With a 10-fold safety factor applied, this would allow for a maximum recommended starting dose (MRSD) of 648 mg/day.7,8 The planned starting dose in the current Phase 1 study was 50 mg, equivalent to 0.83 mg/kg/day for a 60-kg subject. This starting dose is less than 10% of the MRSD determined from the dog NOAEL and less than 1% of the dog NOAEL.\nThe relevant animal study was the 28-day dog study where the NOAEL for IMB-1018972 was 200 mg/kg/day."}, "[2]": {"tested_on": "myocardial energetics and metabolism", "test": "Pharmacodynamic study in obese patients with Type 2 diabetes (PCr/ATP, myocardial triglyceride, body weight)", "type": "in vivo, human", "experimental": "Results of a pharmacodynamic study to evaluate the impact of 200 mg BID of a composition of a compound with formula (X) on rest myocardial energetics (PCr/ATP) in obese individuals with type 2 diabetes are detailed in FIGS. 52-65. The key endpoints of the study were to evaluate the metabolic response, specifically the impact on PDH flux using hyperpolarized ^13C-pyruvate MRS, as a measure of the compound's ability to promote glucose oxidation and recouple glucose oxidation with glycolysis. Also assessed was the effect on cardiac systolic and diastolic function, measured by cardiac magnetic resonance (CMR) and transthoracic echocardiography (TTE), and the effect on cardiac steatosis using ^1H-MRS.\nThe primary objective is to evaluate the impact of 200 mg of formula (X) on rest and stress myocardial energetics (PCr/ATP). Other objectives include: to evaluate the metabolic response, specifically the impact on PDH flux using hyperpolarized ^13C-pyruvate MRS, as a measure of the compound's ability to promote glucose oxidation; to assess the effect on cardiac systolic and diastolic function, as measured by cardiac magnetic resonance (CMR) and transthoracic echocardiography (TTE); to measure the impact on myocardial steatosis.\n(§1) This was a randomized study consisting of a population of 20 patients with Type 2 diabetes and a BMI≥30 kg/m^2. The first five patients were treated for four weeks; the subsequent 15 patients (patients 6-20) were treated for eight weeks (with five additional patients prn). Ten patients had hyperpolarized ^13C-pyruvate MRS."}, "[3]": {"test": "FIH study, SAD part: plasma pharmacokinetics after single oral dose", "conditions": "all blood samples of subjects that received IMB-1018972", "protocol": "(§2) Each subject participated in only 1 group during the study.\n(§3) The blood samples were taken via an indwelling intravenous catheter or by direct venipuncture. The exact times of blood sampling were recorded in the eCRF."}, "[4]": {"test": "FIH study: safety and tolerability (adverse events, laboratory, vital signs, ECG)", "protocol": "AEs were recorded from (first) admission until completion of the follow-up visit. Any clinically significant observations in results of clinical laboratory, 12-lead ECGs, vital signs, or physical examinations were recorded as AEs.\nA treatment-emergent AE (TEAE) was defined as any event not present prior to (the first) administration of the study drug or any event already present that worsened in either severity or frequency following exposure to the study drug.\nThe severity of the AEs was rated as mild, moderate, or severe; the relationship between the AEs and the study drug was indicated as none, unlikely, possibly, likely, or definitely. Adverse events assessed as possibly, likely, or definitely were considered related to the study drug; AEs assessed as none or unlikely were considered not related to the study drug.\nThe ECG was recorded using an ECG machine equipped with computer-based interval measurements (with no/minimal disturbance by procedures). The following ECG parameters were recorded: heart rate, PR-interval, QRS-duration, QT-interval, QTcF-interval, and the interpretation of the ECG profile by the Investigator."}, "[5]": {"test": "Pharmacodynamic study in obese patients with Type 2 diabetes: preliminary safety data", "type": "in vivo, human", "experimental": "as §1\nThe preliminary baseline characteristics of randomized participants is detailed in FIG. 52. The preliminary baseline characteristics of completers is detailed in FIG. 53. FIG. 54 details adverse events as of the data cut-off date of September 20. Nineteen patients were on the drug from approximately one to eight weeks. There were no SAEs. Seven subjects reported nine adverse events. Two subjects had three drug-related AEs. All AEs were mild or moderate in severity. […] Overall, the compound was well-tolerated."}, "[6]": {"conditions": "human, in vivo", "protocol": "Subjects received multiple oral doses of an IR formulation of IMB-1018972 or placebo once every 12 hours (q12 h) for 14 consecutive days. Each subject participated in only 1 group during the study.\nThe doses were selected based upon the safety, tolerability, and PK data from the SAD part: • Group B1 multiple oral doses of an IR formulation of 150 mg IMB-1018972 (n=9) or matching placebo (n=3) twice daily (q12 h) for 14 days; on Day 14 only a single morning dose was administered • Group B2: multiple oral doses of an IR formulation of 50 mg IMB-1018972 (n=9) or matching placebo (n=3) q12 h for 14 days; on Day 14 only a single morning dose was administered\nBefore each morning dose, subjects fasted overnight for at least 10 hours following a snack on the evening before. On Days 1 and 14, subjects received a standardized breakfast that had to be consumed within 20 minutes. Dosing occurred at 30 minutes after the start of breakfast. Following dosing, subjects fasted for 4 hours until lunch. During fasting, fluids other than water were not allowed. On Days 2 to 13, breakfast was not standardized and was given within maximally 1 hour before dosing and consumed before dosing. No fasting after dosing was applicable on these days."}, "clinical": {"test": "clinical", "conditions": "human, in vivo, 50 mg", "protocol": "as §2, §3"}, "[7]": {"conditions": "human, in vivo", "remark": "listed apart in the source", "protocol": "as §2, §3"}, "[8]": {"conditions": "200 mg, combined 4- and 8-week cohorts, interim data"}},
  "data": [
    {"smiles": "COc1ccc(CN2CCN(CCOC(=O)c3cccnc3)CC2)c(OC)c1OC", "note": "[IMB-1018972]", "values": [
      {"measurement": "NOAEL dose for a 60-kg individual", "setting": "[1]", "result": 6480, "unit": "mg"},
      {"measurement": "Cardiac energetics (PCr/ATP)", "setting": "[2]; [8]", "result": "significant and meaningful increase"},
      {"measurement": "Myocardial steatosis (myocardial triglycerides)", "setting": "[2]; [8]", "result": "highly significant reduction"},
      {"measurement": "Mean fasting glucose", "setting": "[2]; short-term administration, cohorts of the study", "result": "significant reduction"},
      {"measurement": "Body weight", "setting": "[2]; short-term administration, combined 4- and 8-week cohorts", "result": "significant weight loss"},
      {"measurement": "IMB-1018972 (parent) in plasma samples", "setting": "[3]", "result": "could be measured in only few plasma samples"},
      {"measurement": "Effect of fed dosing on number and incidence of TEAEs", "setting": "[4]; FE arm of SAD part", "result": "appeared to attenuate the number and incidence of TEAEs"},
      {"measurement": "Subjects with TEAEs of flushing, SOC vascular disorders", "setting": "[4]; MAD part", "result": 33.3, "unit": "%"},
      {"measurement": "Subjects with TEAEs, SOC general disorders and administration site conditions", "setting": "[4]; MAD part", "result": 27.8, "unit": "%"},
      {"measurement": "Subjects with TEAEs, SOC musculoskeletal and connective tissue disorders", "setting": "[4]; MAD part", "result": 27.8, "unit": "%"},
      {"measurement": "Number of TEAEs of flushing (mild)", "setting": "[4]; MAD part, 150 mg q12 h", "result": 7},
      {"measurement": "Subjects with TEAEs considered related to the study drug", "setting": "[4]; MAD part, 6 of 18", "result": 33.3, "unit": "%"},
      {"measurement": "Subjects with TEAEs considered not related to the study drug", "setting": "[4]; MAD part, 11 of 18", "result": 61.1, "unit": "%"},
      {"measurement": "Subjects with TEAEs, SOC gastrointestinal disorders", "setting": "[4]; SAD part", "result": 16.7, "unit": "%"},
      {"measurement": "Subjects with TEAEs, SOC general disorders and administration site conditions", "setting": "[4]; SAD part", "result": 20.8, "unit": "%"},
      {"measurement": "Subjects with TEAEs, SOC nervous system disorders", "setting": "[4]; SAD part", "result": 29.2, "unit": "%"},
      {"measurement": "Subjects with TEAEs, SOC skin and subcutaneous tissue disorders", "setting": "[4]; SAD part", "result": 16.7, "unit": "%"},
      {"measurement": "Subjects with TEAEs, SOC vascular disorders", "setting": "[4]; SAD part", "result": 29.2, "unit": "%"},
      {"measurement": "Subjects with drug-related TEAEs of flushing (vascular disorders)", "setting": "[4]; SAD part", "result": 25, "unit": "%"},
      {"measurement": "Subjects with drug-related TEAEs, nervous system disorders", "setting": "[4]; SAD part", "result": 16.7, "unit": "%"},
      {"measurement": "Subjects with TEAEs considered related to the study drug", "setting": "[4]; SAD part, 7 of 24", "result": 29.2, "unit": "%"},
      {"measurement": "Subjects reporting flushing", "setting": "[4]; single 150 mg IMB-1018972, fasted, FE arm", "result": 2},
      {"measurement": "Subjects reporting flushing", "setting": "[4]; single 400 mg IMB-1018972, fasted", "result": "Four"},
      {"measurement": "Flushing", "setting": "[5]; nineteen patients on drug", "result": "no flushing reported"},
      {"measurement": "Number of adverse events", "setting": "[5]; nineteen patients on drug", "result": "nine"},
      {"measurement": "Number of drug-related AEs", "setting": "[5]; nineteen patients on drug", "result": "three"},
      {"measurement": "Subjects reporting adverse events", "setting": "[5]; nineteen patients on drug", "result": "Seven"},
      {"measurement": "Subjects with drug-related AEs", "setting": "[5]; nineteen patients on drug", "result": "Two"},
      {"measurement": "SAEs", "setting": "[5]; nineteen patients on drug about one to eight weeks", "result": "no SAEs"},
      {"measurement": "Tolerability", "setting": "[5]; overall", "result": "well-tolerated"}
    ]},
    {"smiles": "COc1ccc(CN2CCNCC2)c(OC)c1OC", "note": "[trimetazidine]", "values": [
      {"measurement": "Geometric mean Cmax lower, MAD Day 1 150 mg fed vs SAD single 150 mg fed", "setting": "[6]", "result": 32, "unit": "%"},
      {"measurement": "Tmax", "setting": "clinical", "result": 8, "unit": "h"},
      {"measurement": "Time at which detectable concentrations generally appeared", "setting": "[7]", "result": "15 to 30", "unit": "min"}
    ]}
  ]
}
